Laboratory results: ChEMBL document CHEMBL3886201, “Compositions and methods for the treatment of malaria” (2016)

Assays:
[1] = target: Plasmepsin II (Plasmodium falciparum, UniProt P46925); test: Enzyme Inhibition Assay : Plasmepsin-2 (PM-2; Plm II) and Plasmepsin (PM-4; Plm IV) expression and purification was performed following the published protocols (Istvan E S and Goldberg D E, 2005). The final purified protein was activated by diluting the protein to 0.3 mg/mL in activating buffer (0.1 M citrate pH 4.5, 0.1% Tween-20, 50 mM dithiothreitol) and incubated at room temperature for 40 min, then the activated enzyme was diluted in assay buffer (50 mM sodium acetate pH 4.7, 0.01% Tween-20). The enzymatic inhibition reaction was performed in 384 well plates with a total volume of 20 μl. 10 μl of diluted PM-2 or PM-4 enzyme was added to the 384-well plate except blank wells (blank wells add 10 μL of assay buffer) and 20 nL of serials of diluted 1000× compounds were added to the wells with 520 Echo® Liquid Handling System (Labcyte Inc.). 10 μL PM-2 peptide substrate (AnaSpec, Cat#, 62050) with assay buffer was then added to final concentration of 20 μM to start the reaction.
Sequence of Plasmepsin II (P46925 whole entry): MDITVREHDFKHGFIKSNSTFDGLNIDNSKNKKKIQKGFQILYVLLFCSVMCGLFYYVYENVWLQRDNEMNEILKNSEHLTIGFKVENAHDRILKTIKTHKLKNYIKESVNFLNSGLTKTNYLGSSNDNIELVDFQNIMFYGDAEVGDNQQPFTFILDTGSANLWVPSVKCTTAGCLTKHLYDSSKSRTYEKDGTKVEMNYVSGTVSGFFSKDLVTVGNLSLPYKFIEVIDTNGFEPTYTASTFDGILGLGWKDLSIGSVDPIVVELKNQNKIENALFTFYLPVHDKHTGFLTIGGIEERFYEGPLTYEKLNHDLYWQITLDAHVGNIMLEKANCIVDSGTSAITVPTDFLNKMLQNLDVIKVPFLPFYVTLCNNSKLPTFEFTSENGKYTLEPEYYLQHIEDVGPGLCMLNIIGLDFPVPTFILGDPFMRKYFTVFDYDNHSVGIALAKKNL

[2] = target: Beta-secretase 1 (Homo sapiens, UniProt P56817); test: The enzymatic inhibition activity assays were determined using the fluorescence resonance energy transfer (FRET) assay. The assays were performed in a 384-well plate format. […] The concentration of Cathepsin D was 20 ng/μL, and 1 ng/μL of Cathepsin E was used. CatD and CatE were activated by incubation in assay buffer (0.1 M NaOAc, 0.2 M NaCl, pH 3.5) at room temperature for 30 min. Subsequently, the rhBACE-1 substrate (R&D Systems, catalog# ES004), the Cathepsin D and Cathepsin E substrate (R&D Systems, Catalog # ES001) were added accordingly to final concentration
Sequence of Beta-secretase 1 (P56817 whole entry): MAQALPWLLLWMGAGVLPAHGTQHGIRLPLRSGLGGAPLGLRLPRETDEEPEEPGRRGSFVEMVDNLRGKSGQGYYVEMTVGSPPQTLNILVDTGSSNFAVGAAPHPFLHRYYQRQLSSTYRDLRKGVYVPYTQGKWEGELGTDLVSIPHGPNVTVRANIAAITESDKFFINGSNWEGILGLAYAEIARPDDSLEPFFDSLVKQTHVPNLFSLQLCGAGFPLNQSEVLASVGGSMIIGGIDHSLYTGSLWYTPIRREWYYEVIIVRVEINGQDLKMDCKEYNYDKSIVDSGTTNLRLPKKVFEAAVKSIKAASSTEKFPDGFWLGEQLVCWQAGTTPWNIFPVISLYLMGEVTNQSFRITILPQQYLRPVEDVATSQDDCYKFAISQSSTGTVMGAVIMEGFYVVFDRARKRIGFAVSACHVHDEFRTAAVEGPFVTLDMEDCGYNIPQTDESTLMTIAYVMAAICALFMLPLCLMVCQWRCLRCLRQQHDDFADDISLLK

Row | SMILES | IC50 [1] | IC50 [2]
1 | N=C1NC(c2ccccc2)(c2cccc(Oc3ccccc3)c2)C(=O)N1C1CCCCC1 (stereo not drawn) | 2.2 nM | –
2 | N=C1NC(c2cccc(-c3cccnc3)c2)(C2CC2)C(=O)N1C1CCCCC1 (stereo not drawn) | 126 nM | 16800 nM
